Assays:
Vγ9/Vδ2 T-cells = assay: Activation of Vγ9/Vδ2 T-cells in PBMC (upregulation of CD69 and CD25); format: cell-based; settings: human PBMC from healthy donors, 18 h, n = 4-5 donors, Figure 2d and text
PBMC = assay: Specific cell death in PBMC cultures (ED50, viability dye); format: cell-based, human; settings: supplementary CSV
Experimental: Figure 2 Activation of human Vγ9/Vδ2^+ T cells by HMBP ProPAgens. (a) Human peripheral blood mononuclear cells (PBMC) were incubated with media or indicated concentrations of HMB-PP or zoledronate for 18 h. TCR Vγ9/Vδ2^+ T cells were then assessed for the upregulation of cell surface markers, CD69 and CD25. Data representative of n = 5. (b) As in (a), with PBMC incubated with indicated concentrations of HMBP ProPAgens. Data representative of n = 4. (c) As in (a) and (b), with data showing titrations of each of HMB-PP, zoledronate, and HMBP ProPAgens, alongside a medium control (M). Data from n = 4–5 donors. (d) EC50, ED50, and selectivity index (SI) values for each HMBP ProPAgens. Specific cell death, for ED50 values, was calculated after adjusting for nonspecific cell death in medium controls. (e) CD69 and CD25 activation in CD3^+ CD8^+ αβ T-cells for each compound.
I. T-cell isolation, culture and activation
PBMCs were isolated from heparinised venous blood from consented healthy donors (approved by the NRES Committee West Midlands ethical board; REC reference 14/WM/1254). Blood was layered over lymphoprep© (Stem Cell Technologies) and PBMC isolated according to manufacturers instructions. The cell culture medium used throughout was RPMI-1640 media supplemented with 2 mM L-glutamine, 25 mM HEPES, 1% sodium pyruvate, 50 μg/ml penicillin/streptomycin (Invitrogen) and 10% fetal calf serum (Sigma). For activation assays, 5 x 10^5 PBMC were cultured for 20 h in the presence of medium alone or the indicated concentrations of HMB-PP (Sigma), Zoledronate (Sigma), 5a, 5b, 5c and 5d (as described above). Cultured PBMC were labelled with Zombie© aqua viability dye (Biolegend) and cells were stained for surface antigens by antibodies directed against CD3 (UCHT1; […]
(§1) (IMMU360; 1:400); Beckman Coulter, and TCR Vδ2 (123R3; 1:200); Miltenyi. […] All cells were then labelled with Zombie© aqua viability dye and CFSE+ Zombie© aqua+ cells measured. All data were acquired on an LSR II (Beckton Dickinson) and data analysed with FlowJo V10.1 (TreeStar). Tabulated data were analysed in Graphpad PRISM 7

[1] = molecular target: T1, carboxypeptidase cathepsin A (Homo sapiens, UniProt P10619); assay: In vitro cathepsin A mediated degradation monitored by 31P NMR and mass spectroscopy; format: in vitro ADME; settings: after 72 h
T1 sequence (P10619 29-480): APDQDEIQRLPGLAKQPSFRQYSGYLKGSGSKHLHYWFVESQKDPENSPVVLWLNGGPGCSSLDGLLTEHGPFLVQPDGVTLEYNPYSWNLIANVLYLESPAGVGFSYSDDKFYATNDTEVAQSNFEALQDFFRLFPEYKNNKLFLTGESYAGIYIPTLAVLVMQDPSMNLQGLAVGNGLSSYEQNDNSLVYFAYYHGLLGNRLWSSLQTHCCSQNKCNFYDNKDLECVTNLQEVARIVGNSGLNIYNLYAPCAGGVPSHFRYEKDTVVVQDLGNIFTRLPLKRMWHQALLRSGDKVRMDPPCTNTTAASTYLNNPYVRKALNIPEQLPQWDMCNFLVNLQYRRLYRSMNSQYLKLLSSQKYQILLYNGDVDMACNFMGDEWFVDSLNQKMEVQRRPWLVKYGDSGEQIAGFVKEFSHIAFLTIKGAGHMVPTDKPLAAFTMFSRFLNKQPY
Experimental: In order to get an insight into the metabolism of ProPAgens 6a–d, compound 6d was incubated with the carboxypeptidase cathepsin A in vitro and the reaction was monitored with ^31P NMR. […] This may explain literature reports pursuing the phosphonates of HMBP where the −O-P- bond was replaced by a −CH2-P- one and lack of reports on the native HMBP phosphate prodrugs.[19]

[2] = tested on: T24 urinary bladder carcinoma cell line; assay: Specific lysis of pulsed T24 bladder carcinoma cells by expanded Vγ9/Vδ2 T cells; format: cell-based, human; settings: T24 pulsed 4 h with 10 nM ProPAgens or 10 μM zoledronate, cocultured 18 h with expanded Vγ9/Vδ2 T cells
Experimental: Next, we tested the potential for ProPAgens to sensitize the urinary bladder carcinoma cell line T24 for targeted killing by in vitro expanded Vγ9/Vδ2 T cells. Without sensitization, medium pulsed T24 cells were poorly targeted by increasing ratios of Vγ9/Vδ2 T cells, but upon pulsing for 4 h with zoledronate or ProPAgens 5a–d, T24 cells were specifically lysed (Figure 3a). […] In contrast, a 1000-fold lower concentration of each ProPAgen mediated a 2- to 4-fold increase in specific lysis of T24 over the same period (Figure 3b).
Figure 3 HMBP ProPAgens mediate the specific lysis of bladder cancer cells by Vγ9/Vδ2 T-cells. […] Specific killing of target cells was measured by amine-reactive dead cell marker staining. […] (b) As in (a) showing the mean ± SD specific killing of T24 cells at 1:10 target/effector ratio for each indicated treatment, n = 2: (∗) P < 0.05; (∗∗) P < 0.01; determined by one-way ANOVA. […]
as §1

Row | Compound | EC50, activation of Vγ9/Vδ2 T-cells (Vγ9/Vδ2 T-cells) | ED50 (PBMC) | also measured
1 | COC(=O)[C@H](C)NP(=O)(OC/C=C(\C)CO[Si](C)(C)C(C)(C)C)Oc1ccccc1 (stereo partly drawn) [5a, Methyl ((((E)-4-((tert-Butyldimethylsilyl)oxy)-3-methylbut-2-en-1-yl)oxy)(phenoxy)phosphoryl)-L-alaninate] | low nanomolar activation | – | –
2 | C/C(=C\COP(=O)(N[C@@H](C)C(=O)OC(C)C)Oc1ccccc1)CO[Si](C)(C)C(C)(C)C (stereo partly drawn) [5c, Isopropyl ((((E)-4-((tert-Butyldimethylsilyl)oxy)-3-methylbut-2-en-1-yl)oxy)(phenoxy)phosphoryl)-L-alaninate] | low nanomolar activation | – | –
3 | C/C(=C\COP(=O)(N[C@@H](C)C(=O)OC(C)(C)C)Oc1ccccc1)CO[Si](C)(C)C(C)(C)C (stereo partly drawn) [5d, tert-Butyl ((((E)-4-((tert-Butyldimethylsilyl)oxy)-3-methylbut-2-en-1-yl)oxy)(phenoxy)phosphoryl)-L-alaninate] | low nanomolar activation | >100 µM | –
4 | C/C(=C\COP(=O)(N[C@@H](C)C(=O)OC(C)(C)C)Oc1ccccc1)CO (stereo partly drawn) [6d, tert-Butyl ((((E)-4-Hydroxy-3-methylbut-2-en-1-yl)oxy)(phenoxy)phosphoryl)-L-alaninate] | – | – | degradation product (major metabolite) after incubation with cathepsin A [1]: phosphate group masked with the aryl motif and the amino acid ester moiety
5 | C/C(=C\COP(=O)(O)OP(=O)(O)O)CO [HMBPP, (E)-4-hydroxy-3-methyl-but-2-enyl pyrophosphate] | – | >100 µM | –
6 | O.O=P(O)(O)C(O)(Cn1ccnc1)P(=O)(O)O [Zoledronate] | – | >100 µM | specific lysis/killing of T24 cells by Vγ9/Vδ2 T cells (in words) [2]: only a marginal increase
